In patent US20220106328A1, “HETEROCYCLIC COMPOUNDS” (Hoffmann-La Roche Inc., priority 2019, published 2022):

target: T1, MAGL (Homo sapiens, UniProt Q99685); assay: 2-AG assay (MAGL inhibitory activity; hydrolysis of 2-arachidonoylglycerol to arachidonic acid followed by mass spectrometry); assay type: biochemical; settings: 8 μM 2-arachidonoylglycerol, 15 min pre-incubation, 30 min incubation at rt, RapidFire MS read-out
T1 sequence (Q99685 1-303): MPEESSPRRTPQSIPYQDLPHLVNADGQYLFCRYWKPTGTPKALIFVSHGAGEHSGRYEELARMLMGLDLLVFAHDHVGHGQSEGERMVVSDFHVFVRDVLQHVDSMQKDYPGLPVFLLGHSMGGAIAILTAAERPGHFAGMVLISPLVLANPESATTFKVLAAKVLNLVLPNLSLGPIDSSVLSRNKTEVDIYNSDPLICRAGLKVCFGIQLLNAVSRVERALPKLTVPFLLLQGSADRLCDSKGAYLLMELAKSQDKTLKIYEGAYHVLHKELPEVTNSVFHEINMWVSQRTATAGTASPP
Experimental: Compounds were profiled for MAGL inhibitory activity by determining the enzymatic activity by following the hydrolysis of the natural substrate 2-arachidonoylglycerol resulting in arachidonic acid, which can be followed by mass spectrometry. This assay is hereinafter abbreviated “2-AG assay”.
A C18 SPE cartridge (G9205A) was used in an ACN/water liquid setup. […] The activity of the compounds was calculated based on the ratio of intensities [arachidonic acid/d8-arachidonic acid].

Structure (SMILES)	IC50 [nM]
O=C1CO[C@@H]2CCN(C(=O)N3CC(c4ccc(CC(F)(F)F)cc4)C3)C[C@H]2N1 (single isomer, unassigned) [Example 15, (+)- or (−)-trans-6-[3-[4-(2,2,2-Trifluoroethyl)phenyl]azetidine-1-carbonyl]-4,4a,5,7,8,8a-hexahydropyrido[4,3-b][1,4]oxazin-3-one]	357
O=C1CO[C@H]2CCN(C(=O)N3CC(OCc4ccc(C(F)(F)F)cc4Cl)C3)C[C@@H]2N1 (single isomer, unassigned) [Example 21, (−)- or (+)-trans-6-[3-[[2-Chloro-4-(trifluoromethyl)phenyl]methoxy]azetidine-1-carbonyl]-4,4a,5,7,8,8a-hexahydropyrido[4,3-b][1,4]oxazin-3-one]	78
CC(C)(C)c1ccc(C2CN(C(=O)N3CCC4OCC(=O)NC4C3)C2)cc1 (single isomer, unassigned) [Example 1, (+)- or (−)-trans-6-[3-(4-tert-Butylphenyl)azetidine-1-carbonyl]-4,4a,5,7,8,8a-hexahydropyrido[4,3-b][1,4]oxazin-3-one]	235
O=C1COC2CCN(C(=O)N3CC(OCc4ccc(C(F)(F)F)cc4F)C3)CC2N1 (single isomer, unassigned) [Example 5, (+)- or (−)-trans-6-[3-[[2-Fluoro-4-(trifluoromethyl)phenyl]methoxy]azetidine-1-carbonyl]-4,4a,5,7,8,8a-hexahydropyrido[4,3-b][1,4]oxazin-3-one]	327
O=C1CO[C@@H]2CCN(C(=O)N3CCC(C(c4ccc(F)cc4)c4ccc(F)cc4)CC3)C[C@H]2N1 (single isomer, unassigned) [Example 24, (+)- or (−)-trans-6-[4-[Bis(4-fluorophenyl)methyl]piperidine-1-carbonyl]-4,4a,5,7,8,8a-hexahydropyrido[4,3-b][1,4]oxazin-3-one]	208
